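Briefly, cells in 96-well plates were exposed to five compound concentrations for 48 h, and endpoints were estimated by linear interpolation. GI50: concentration for 50% inhibition of growth.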 Calls of active or inactive are those of the source. Cut-off read from the data, not from the text of the source: active = GI50 up to about 1.1 µM and inactive = higher.
Tests used:
Test in all cases: inhibition of tumour cell growth, NCI panel, 48 h
PC-3 = system: PC-3
COLO 205 = system: COLO 205
A498 = system: A498
MDA-MB-231 = system: MDA-MB-231
ACHN = system: ACHN
SNB-19 = system: SNB-19
HCT-15 = system: HCT-15
UO-31 = system: UO-31
T47D = system: T47D
OVCAR-3 = system: OVCAR-3
MCF7 = system: MCF7
KM12 = system: KM12
HL-60 = system: HL-60
NCI-H460 = system: NCI-H460
M14 = system: M14
HCC 2998 = system: HCC 2998
CCRF-CEM = system: CCRF-CEM
HOP-62 = system: HOP-62
MDA-MB-435 = system: MDA-MB-435
OVCAR-5 = system: OVCAR-5

| Structure (SMILES) | GI50 (PC-3) | GI50 (COLO 205) | GI50 (A498) | GI50 (MDA-MB-231) | GI50 (ACHN) | GI50 (SNB-19) | GI50 (HCT-15) [µM] | GI50 (UO-31) | GI50 (T47D) | GI50 (OVCAR-3) | GI50 (MCF7) | GI50 (KM12) | GI50 (HL-60) | GI50 (NCI-H460) | GI50 (M14) | GI50 (HCC 2998) | GI50 (CCRF-CEM) | GI50 (HOP-62) | GI50 (MDA-MB-435) | GI50 (OVCAR-5) |
| --- | --- | --- | --- | --- | --- | --- | --- | --- | --- | --- | --- | --- | --- | --- | --- | --- | --- | --- | --- | --- |
| NC1CCC(c2cc3ccccc3s2)(N2CCCCC2)CC1 (stereo not given) | 1.55 µM (inactive) | 1.58 µM (inactive) | 9.29 µM (inactive) | 3.35 µM (inactive) | 3.41 µM (inactive) | 12.5 µM (inactive) | 1.77 | 2.31 µM (inactive) | 2.09 µM (inactive) | 1.27 µM (inactive) | 1.68 µM (inactive) | 1.73 µM (inactive) | 1.85 µM (inactive) | 1.63 µM (inactive) | 1.54 µM (inactive) | 1.04 µM (active) | 1.01 µM (active) | 1.35 µM (inactive) | 1.35 µM (inactive) | 1.48 µM (inactive) |
| C[C@H]1CC[C@H]([C@@H](C)[C@H]2[C@@H](O)C[C@H]3[C@@H]4CC[C@H]5C[C@@H](O)CC[C@]5(C)[C@H]4CC[C@]23C)NC1 | 12.4 µM (inactive) | 19.6 µM (inactive) | 17.4 µM (inactive) | 21.2 µM (inactive) | 21.2 µM (inactive) | 23.5 µM (inactive) | 17 | 13.9 µM (inactive) | 12.6 µM (inactive) | 18.7 µM (inactive) | 21.9 µM (inactive) | 15.2 µM (inactive) | 4.45 µM (inactive) | 20.2 µM (inactive) | 24.2 µM (inactive) | 18.6 µM (inactive) | 5.53 µM (inactive) | 23.7 µM (inactive) | 16.7 µM (inactive) | 19.3 µM (inactive) |
| CC1(C)CC[C@]2(C(=O)O)CC[C@]3(C)C(=CC[C@@H]4[C@@]5(C)CC[C@H](OC6OC(CO)C(O)C(O)C6O)C(C)(C)[C@@H]5CC[C@]43C)[C@@H]2C1 (stereo not given in full) | 1.6 µM (inactive) | 1.8 µM (inactive) | 2.1 µM (inactive) | 1.66 µM (inactive) | 1.66 µM (inactive) | 1.52 µM (inactive) | 2.75 | 1.71 µM (inactive) | 1.82 µM (inactive) | 1.61 µM (inactive) | 2.37 µM (inactive) | 1.52 µM (inactive) | 2 µM (inactive) | 3.61 µM (inactive) | 1.75 µM (inactive) | 1.59 µM (inactive) | 2.22 µM (inactive) | 1.72 µM (inactive) | 1.87 µM (inactive) | 1.9 µM (inactive) |
| N=C1C(=N)c2ccccc2-c2ccccc21 | 1.52 µM (inactive) | 1.73 µM (inactive) | 2.24 µM (inactive) | 0.313 µM (active) | 1.41 µM (inactive) | 1.53 µM (inactive) | 1.55 | 1.61 µM (inactive) | 0.419 µM (active) | 0.354 µM (active) | 0.792 µM (active) | 1.85 µM (inactive) | 0.194 µM (active) | 1.38 µM (inactive) | 1.05 µM (active) | 1.96 µM (inactive) | 0.376 µM (active) | 1.67 µM (inactive) | 0.199 µM (active) | 2 µM (inactive) |
| COC(=O)c1ccccc1C1CN=NC12Cc1ccc(C)c(C)c1C2=O (stereo not given) | 50.8 µM (inactive) | 53.7 µM (inactive) | > 100 µM (inactive) | 40.2 µM (inactive) | > 100 µM (inactive) | > 100 µM (inactive) | 33.9 | 93.8 µM (inactive) | 20.5 µM (inactive) | > 100 µM (inactive) | 35.6 µM (inactive) | 29.2 µM (inactive) | 16.3 µM (inactive) | 52.4 µM (inactive) | 62.7 µM (inactive) | 68.9 µM (inactive) | 34.3 µM (inactive) | > 100 µM (inactive) | 64.3 µM (inactive) | > 100 µM (inactive) |
| Oc1cccc2c(Br)ccnc12 | 4.17 µM (inactive) | 11.2 µM (inactive) | 7.82 µM (inactive) | 2.75 µM (inactive) | 2.58 µM (inactive) | 7.71 µM (inactive) | 2.27 | 2.84 µM (inactive) | 3.17 µM (inactive) | 0.697 µM (active) | 4.43 µM (inactive) | 5.19 µM (inactive) | 0.181 µM (active) | 3.57 µM (inactive) | 1.98 µM (inactive) | 14.7 µM (inactive) | 0.38 µM (active) | 8.73 µM (inactive) | 5.92 µM (inactive) | 6.08 µM (inactive) |
| C#CCN(C(=O)C(F)(F)F)C(/C=C\C(=O)OC)(C(=O)OCC)C(=O)OCC | > 100 µM (inactive) | > 10 µM (inactive) | > 100 µM (inactive) | > 100 µM (inactive) | > 100 µM (inactive) | > 100 µM (inactive) | > 100 | > 100 µM (inactive) | > 100 µM (inactive) | > 100 µM (inactive) | > 100 µM (inactive) | > 100 µM (inactive) | > 100 µM (inactive) | > 100 µM (inactive) | > 100 µM (inactive) | > 100 µM (inactive) | > 100 µM (inactive) | > 100 µM (inactive) | > 100 µM (inactive) | > 100 µM (inactive) |
| O=C(O)c1ccc(C(=O)c2ccccc2C(=O)O)cc1C(=O)O | > 100 µM (inactive) | > 100 µM (inactive) | > 100 µM (inactive) | > 100 µM (inactive) | > 100 µM (inactive) | > 100 µM (inactive) | > 100 | > 100 µM (inactive) | > 100 µM (inactive) | > 100 µM (inactive) | > 100 µM (inactive) | > 100 µM (inactive) | > 76.9 µM (inactive) | > 100 µM (inactive) | > 100 µM (inactive) | > 100 µM (inactive) | > 26.4 µM (inactive) | > 100 µM (inactive) | > 100 µM (inactive) | > 100 µM (inactive) |
| CN(C)[C@@H]1C(O)=C(C(=O)NCNc2nc3[nH]nnc3c(=O)[nH]2)C(=O)[C@@]2(O)C(O)=C3C(=O)c4c(O)cccc4[C@@](C)(O)[C@H]3C[C@@H]12 | 3.42 µM (inactive) | 23.6 µM (inactive) | 92 µM (inactive) | 0.883 µM (active) | 31.5 µM (inactive) | 86.1 µM (inactive) | 42.5 | 0.358 µM (active) | 5.37 µM (inactive) | 25.9 µM (inactive) | 66.1 µM (inactive) | 49.8 µM (inactive) | 0.231 µM (active) | 24.3 µM (inactive) | 0.557 µM (active) | 64 µM (inactive) | 0.228 µM (active) | 0.518 µM (active) | 0.452 µM (active) | 33.5 µM (inactive) |
| OC(CCNCc1ccccc1)c1ccc2ccccc2c1 (stereo not given) | 20.3 µM (inactive) | 20.7 µM (inactive) | 19.4 µM (inactive) | 17.4 µM (inactive) | 18.3 µM (inactive) | 23.7 µM (inactive) | 20.5 | 16 µM (inactive) | 24 µM (inactive) | 13.3 µM (inactive) | 24.9 µM (inactive) | 17 µM (inactive) | 19.5 µM (inactive) | 17.3 µM (inactive) | 36.1 µM (inactive) | 36.2 µM (inactive) | 1.68 µM (inactive) | 19.3 µM (inactive) | 23 µM (inactive) | 30.7 µM (inactive) |
| O=C1CSC(=S)N1/N=C/c1ccc(Cl)c([N+](=O)[O-])c1 | 24.6 µM (inactive) | 43.7 µM (inactive) | 61 µM (inactive) | 21.3 µM (inactive) | 23.3 µM (inactive) | 22.9 µM (inactive) | 20.2 | 27.6 µM (inactive) | 23 µM (inactive) | 20.1 µM (inactive) | 13.3 µM (inactive) | 34.2 µM (inactive) | 24.2 µM (inactive) | 41.3 µM (inactive) | 18.8 µM (inactive) | 11.9 µM (inactive) | 7.35 µM (inactive) | 30.6 µM (inactive) | 20.7 µM (inactive) | > 100 µM (inactive) |
| Cc1cc(N(CCC#N)CCC#N)ccc1C(/N=N/c1ccccc1)=N\NC(=O)c1ccccc1 | 16.9 µM (inactive) | 20.4 µM (inactive) | 24.6 µM (inactive) | 57 µM (inactive) | 16.4 µM (inactive) | 40.4 µM (inactive) | 18.3 | 17.9 µM (inactive) | 5.2 µM (inactive) | 30.3 µM (inactive) | 18.6 µM (inactive) | 18.1 µM (inactive) | 35.7 µM (inactive) | 29.3 µM (inactive) | 69 µM (inactive) | 22.9 µM (inactive) | 18.6 µM (inactive) | 55.8 µM (inactive) | 8.04 µM (inactive) | 86.9 µM (inactive) |

From ChEMBL document CHEMBL1201862, “PubChem BioAssay data set” (2004)
